Assays:
iCELL Cardiomyocytes = assay: Cardiac safety: caspase 3 and 7 activation (Caspase-Glo 3/7) in iCELL Cardiomyocytes; format: cell-based
Excerpt: The effect of various compounds of the invention and a reference compound AZD5991 on cardiac safety was investigated by the evaluation of caspase 3 and 7 activation using Caspase-Glo 3/7 Assay (Promega; G8092) in iCELL™ Cardiomyocytes from FUJIFILM Cellular Dynamics (Catalog number: 11713). In the Caspase-Glo® 3/7 Assay, the luminescence (measured as Relative Luciferase Units, RLU) is proportional to the amount of caspase activity present in each sample.
The assay is initiated by thawing and seeding iCell® Cardiomyocytes as specified in the User Guide. After 48 hours, the cells are washed to remove unattached cells and debris and immediately treated with compounds or DMSO diluted in the maintenance medium (FCDI; cat: M1003). Compound concentrations used in this assay: 7 points 1/3 dilution curve starting at 100 uM. After 24 hours of incubation with compounds, caspase activity is measured by the addition of the Caspase-Glo® 3/7 Reagent followed by the luminescence measurement.
The analysis of the results is performed by calculation of the fold change in caspase 3/7 activity at a given compound concentration. Fold change is calculated with the formula: […]
where: • RLU Xi is the Relative Luciferase Units of sample I; • RLU BG is the Background Relative Luciferase Units; • RLU C is the Relative Luciferase Units of Control (DMSO).
The experiments were performed in technical duplicates.

MV-4-11 cells = assay: Induction of apoptosis in cancer cells, flow cytometry (Annexin V/PI); format: cell-based; conditions: MV-4-11 cells, 1, 3, 10, 30 and 100 nM, 24 hours
Experimental: The effect of compound 204 of the invention MV-4-11 cells was investigated using the following protocol.
MV-4-11 cells were seeded on 24-well plates (1 ml) in growth medium containing 1% FBS. Immediately after seeding, compounds in appropriate concentrations were added directly to the cell culture medium. After 24 hours incubation, cells were washed twice with cold DPBS and the staining was performed using the FITC Annexin V Apoptosis Detection Kit I (BD Pharmingen; 556547). Samples were then analyzed by flow cytometry (LSR Fortessa X-20; BD Biosciences) within 1 hr. Results were evaluated using FlowJo (V10) software.
FIG. 6 presents the induction of apoptosis in MV-4-11 cells treated with 204 at 1, 3, 10, 30, and 100 nM concentration for 24 hours, as indicated.

Compound: Cc1nn(C)c(C)c1-c1c(Cl)ccc2c(CCCOc3cccc4ccccc34)c(C(=O)O)n(CCN3CCN(C(=O)COc4cccc5c4C(=O)N(C4CCC(=O)NC4=O)C5=O)CC3)c12 (stereo not drawn) [Compound 204, 6-chloro-1-(2-(4-(2-((2-(2,6-dioxopiperidin-3-yl)-1,3-dioxoisoindolin-4-yl)oxy)acetyl)piperazin-1-yl)ethyl)-3-(3-(naphthalen-1-yloxy)propyl)-7-(1,3,5-trimethyl-1H-pyrazol-4-yl)-1H-indole-2-carboxylic acid]
- Fold change at 1.2 uM (caspase 3/7 activity in cardiomyocytes) (iCELL Cardiomyocytes; 1.2 uM, 24 hours incubation, vs DMSO): ≤1.5 ± 0.2
- activity in caspase activity assay in cardiomyocytes (iCELL Cardiomyocytes; as opposed to reference compound AZD5991): little to no activity
- population of late apoptotic/cell death (Annexin+/PI+) cells (MV-4-11 cells): concentration dependent increase
